Assay results reported in patent US20170267708A1, “C-4" POSITION SUBSTITUTED MACROLIDE DERIVATIVE” (priority 2014, published 2017).
Converted amounts (≈) assume the structure as drawn. Read-outs that look alike come from different tables or passages of the source.

Columns and labels:
[1] = tested on: Haemophilus influenzae ATCC 43095 strain; test: Therapeutic effectiveness in Haemophilus influenzae-infected animals; format: in vivo, mice; conditions: for number of living cells in the lung: ICR mice, 3 days after inoculation, average±standard error
Procedure: As a bacterium, the Haemophilus influenzae ATCC 43095 strain (bacterium symbol A) was used. Cells of the bacterium cultured overnight on a chocolate agar medium were collected, suspended in a Hemophilus susceptibility test medium or the brain heart infusion medium supplemented with Fildes Enrichment, and then cultured overnight. The culture was diluted with the Hemophilus susceptibility test medium or the brain heart infusion medium supplemented with Fildes Enrichment to prepare a bacterial suspension for inoculation. The bacterial suspension for inoculation (0.05 mL each) was intratracheobronchially administered to mice (ICR, male, 4 weeks old) for infection. The inoculated bacterial amount was 2.25×10^6 CFU/mouse, or 9.00×10^5 CFU/mouse. From the next day of the inoculation, the compound represented by the formula [1] of Example 1 (100 and 200 mg/kg) or a medium (mixture of equivalent volumes of a 0.1 mol/L lactobionic acid solution and a 0.5 w/v % sodium hydrogencarbonate solution) was orally administered to the mice once a day for 2 days. The numbers of living cells in the lung observed 3 days after the inoculation are shown in FIG. 1 (each group consisted of 6 mice, average±standard error).
The notes for FIG. 1 are as follows. As for significant difference relative to the medium administration group, significance was determined by the Steel test, and the symbols * and ** mean p<0.05 and p<0.01, respectively. The MIC value of the compound of Example 1 represented by the formula [I] was 4 μg/mL, and the MIC value of the compound of Reference Example 4 represented by the formula [3] was 4 μg/mL.
In the following descriptions, the numbers of living cells in the lung as the test results may be represented in terms of common logarithm of number of live cells in the lung (CFU/lung) (common logarithm is henceforth indicated as log).

[2] = tested on: Streptococcus pneumoniae 1101 strain; test: Therapeutic effect test in erythromycin resistant pneumococcus (harboring erm(B) gene)-infected animals; format: in vivo, mice; conditions: for number of living cells in the lung: CBA/JN mice, 3 days after inoculation, average±standard error
Procedure: As a bacterium, the Streptococcus pneumoniae 1101 strain (clinically isolated strain) was used. A frozen stock of the strain used was added to the Todd Hewitt broth supplemented with 30 vol % inactivated horse serum, and the bacterium was cultured until the turbidity (OD600) became about 0.3. The culture medium was diluted with the Todd Hewitt broth supplemented with 30 vol % inactivated horse serum to prepare a bacterial suspension for inoculation. The bacterial suspension for inoculation (0.05 mL each) was intranasally administered to mice (CBA/JN, male, 5 weeks old) for infection. The inoculated bacterial amount was 7.50×10^4 CFU/mouse, or 1.65×10^5 CFU/mouse. From the next day of the inoculation, the compound of Example 1 represented by the formula [1] […] The numbers of live cells in the lung observed 3 days after the inoculation are shown in FIG. 2 (each group consisted of 5 or 6 mice, average±standard error).
(§1) The notes for FIG. 2 are as follows. As for significant difference relative to the medium administration group, significance was determined by the Steel test, and the symbols * and ** mean p<0.05 and p<0.01, respectively.

[3] = tested on: Streptococcus pneumoniae 1028 strain; test: Therapeutic effect test in erythromycin resistant pneumococcus (harboring mef(A) gene)-infected animals; format: in vivo, mice; conditions: for number of living cells in the lung: CBA/JN mice, 3 days after inoculation
Procedure: As a bacterium, the Streptococcus pneumoniae 1028 strain (clinically isolated strain) was used. A frozen stock of the strain used was added to the Todd Hewitt broth supplemented with 30 vol % inactivated horse serum, and the bacterium was cultured until the turbidity (OD600) became about 0.3. The culture was diluted with the Todd Hewitt broth supplemented with 30 vol % inactivated horse serum to prepare a bacterial suspension for inoculation. The bacterial suspension for inoculation (0.05 mL each) was intranasally administered to mice (CBA/JN, male, 5 weeks old) for infection. The inoculated bacterial amount was 3.45×10^4 CFU/mouse, or 3.90×10^4 CFU/mouse. From the next day of the inoculation, the compound of Example 1 represented by the formula [1] (3, 10, 30 and 100 mg/kg) or a medium (mixture of equivalent volumes of a 0.1 mol/L lactobionic acid solution and a 0.5 w/v % sodium hydrogencarbonate solution) was orally administered to the mice once a day for 2 days. The numbers of living cells in the lung observed 3 days after the inoculation are shown in FIG. 3 (each group consisted of 5 or 6 mice, average±standard error).
(§2) The notes for FIG. 3 are as follows. As for significant difference relative to the medium administration group, significance was determined by the Steel test, and the symbols * and ** mean p<0.05 and p<0.01, respectively.

[4] = tested on: Streptococcus pneumoniae 1028 strain; test: MIC against the strain of Test Example 5; format: cell-based; conditions: notes for FIG. 3, mef(A) strain
Procedure: as §2

[5] = tested on: Streptococcus pneumoniae 1101 strain; test: MIC against the strain of Test Example 4; format: cell-based; conditions: notes for FIG. 2, erm(B) strain
Procedure: as §1

[6] = tested on: 39 kinds of clinically isolated strains of Hemophilus influenzae; test: Hemophilus influenzae susceptibility test; format: cell-based; conditions: 39 clinically isolated strains
Procedure: (§3) In vitro antibacterial activities of the compound of the present invention, the compound represented by the formula [1] of Example 1, against various test bacteria were measured according to the microbroth dilution method (CLSI method). The activities of the compound of Reference Example 4 represented by the formula [3] was similarly measured. The MIC values (minimum inhibitory concentration, μg/ml) for the test bacteria of the bacterium symbols A, B, C, D, E, F, G, H, I, J, K, and L are shown in Table 2.
Drug susceptibility of 39 kinds of clinically isolated strains of Hemophilus influenzae was evaluated in the same manner as that of Test Example 1.

[7] = tested on: Streptococcus pneumoniae MSC07465; test: In vitro antibacterial activity, microbroth dilution (CLSI method); format: cell-based; conditions: bacterium symbol E
Procedure: as §3

[8] = tested on: Haemophilus influenzae MSC17946; test: as above; format: cell-based; conditions: bacterium symbol B
Procedure: as §3

[9] = tested on: Streptococcus pneumoniae MSC07365; test: as above; format: cell-based; conditions: bacterium symbol H
Procedure: as §3

[10] = tested on: Streptococcus pyogenes MSC07812; test: as above; format: cell-based; conditions: bacterium symbol J
Procedure: as §3

[11] = tested on: Streptococcus pneumoniae MSC08607; test: as above; format: cell-based; conditions: bacterium symbol F
Procedure: as §3

[12] = tested on: Streptococcus aureus ATCC29213; test: as above; format: cell-based; conditions: bacterium symbol L
Procedure: as §3

[13] = tested on: Haemophilus influenzae NSC17960; test: as above; format: cell-based; conditions: bacterium symbol C
Procedure: as §3

[14] = tested on: Streptococcus pyogenes MSC07811; test: as above; format: cell-based; conditions: bacterium symbol K
Procedure: as §3

[15] = tested on: Streptococcus pneumoniae ATCC700904; test: as above; format: cell-based; conditions: bacterium symbol G
Procedure: as §3

[16] = tested on: Streptococcus pyogenes ATCC12344; test: as above; format: cell-based; conditions: bacterium symbol I
Procedure: as §3

[17] = tested on: Streptococcus pneumoniae ATCC49619; test: as above; format: cell-based; conditions: bacterium symbol D
Procedure: as §3

[18] = tested on: Haemophilus influenzae ATCC43095; test: as above; format: cell-based; conditions: for MIC: Haemophilus influenzae, ATCC43095
Procedure: as §3

[19] = 100 mg/kg orally once a day for 2 days
[20] = 200 mg/kg orally once a day for 2 days
[21] = 30 mg/kg orally once a day for 2 days
[22] = 10 mg/kg orally once a day for 2 days, average±standard error
[23] = 30 mg/kg orally once a day for 2 days, 1.30 = lower than detection limit
[24] = 100 mg/kg orally once a day for 2 days, 1.30 = lower than detection limit

CCNC(=O)CN1C(=O)O[C@]2(C)[C@@H](CC)OC(=O)[C@H](C)[C@@H](O[C@H]3C[C@@](C)(OC)[C@@](O)(CN(C)CCN(C(C)C)C(C)C)[C@H](C)O3)[C@H](C)[C@@H](O[C@@H]3O[C@H](C)C[C@H](N(C)C)[C@H]3O)[C@@](C)(OC)C[C@@H](C)C(=O)[C@H](C)[C@@H]12 [Example 1]
number of living cells in the lung [1, 19]: 3.54±0.49 log (CFU/lung) | number of living cells in the lung [1, 20]: 2.83±0.53 log (CFU/lung) | therapeutic effectiveness relative to the compound of Reference Example 4 ([1]; overall conclusion of Test Example 3): comparable | number of living cells in the lung [2, 21]: 4.14±0.19 log (CFU/lung) | number of living cells in the lung [2, 19]: 2.28±0.24 log (CFU/lung) | therapeutic effectiveness relative to the compound of Reference Example 4 ([2]; overall conclusion of Test Example 4): superior | number of living cells in the lung ([3]; 3 mg/kg orally once a day for 2 days, average±standard error): 6.45±0.18 log (CFU/lung) | number of living cells in the lung [3, 22]: 1.30±0.00 log (CFU/lung) | number of living cells in the lung [3, 23]: 1.30±0.00 log (CFU/lung) | number of living cells in the lung [3, 24]: 1.30±0.00 log (CFU/lung) | therapeutic effectiveness relative to the compound of Reference Example 4 ([3]; overall conclusion of Test Example 5): superior | MIC value [4]: 0.12 µg/mL (≈ 0.117 µM) | MIC value [5]: 0.25 µg/mL (≈ 0.243 µM) | MIC50 [6]: 4 µg/mL (≈ 3.89 µM) | MIC90 [6]: 8 µg/mL (≈ 7.78 µM) | MIC (minimum inhibitory concentration) [7]: 0.03 µg/mL (≈ 0.0292 µM) | MIC (minimum inhibitory concentration) [8]: 8 µg/mL (≈ 7.78 µM) | MIC (minimum inhibitory concentration) [9]: 4 µg/mL (≈ 3.89 µM) | MIC (minimum inhibitory concentration) [10]: 0.12 µg/mL (≈ 0.117 µM) | MIC (minimum inhibitory concentration) [11]: 0.06 µg/mL (≈ 0.0583 µM) | MIC (minimum inhibitory concentration) [12]: 1 µg/mL (≈ 0.972 µM) | MIC (minimum inhibitory concentration) [13]: 4 µg/mL (≈ 3.89 µM) | MIC (minimum inhibitory concentration) [14]: 2 µg/mL (≈ 1.94 µM) | MIC (minimum inhibitory concentration) [15]: 0.12 µg/mL (≈ 0.117 µM) | MIC (minimum inhibitory concentration) [16]: 0.06 µg/mL (≈ 0.0583 µM) | MIC (minimum inhibitory concentration) [17]: 0.06 µg/mL (≈ 0.0583 µM) | MIC (minimum inhibitory concentration) ([18]; bacterium symbol A): 4 µg/mL (≈ 3.89 µM) | MIC value ([18]; notes for FIG. 1, strain of Test Example 3): 4 µg/mL (≈ 3.89 µM)

CC[C@H]1OC(=O)[C@H](C)[C@@H](O[C@H]2C[C@@](C)(OC)[C@@](O)(CN(C)CCN(CC)CC)[C@H](C)O2)[C@H](C)[C@@H](O[C@@H]2O[C@H](C)C[C@H](N(C)C)[C@H]2O)[C@@](C)(OC)C[C@@H](C)C(=O)[C@H](C)[C@H]2N(CCCS(C)(=O)=O)C(=O)O[C@]12C [Reference Example 4, reference compound]
number of living cells in the lung [1, 19]: 4.37±0.27 log (CFU/lung) | number of living cells in the lung [1, 20]: 2.53±0.23 log (CFU/lung) | number of living cells in the lung ([2]; 10 mg/kg orally once a day for 2 days): 5.86±0.12 log (CFU/lung) | number of living cells in the lung [2, 21]: 5.22±0.16 log (CFU/lung) | number of living cells in the lung [2, 19]: 3.65±0.36 log (CFU/lung) | number of living cells in the lung [3, 22]: 5.67±0.38 log (CFU/lung) | number of living cells in the lung [3, 23]: 1.30±0.00 log (CFU/lung) | number of living cells in the lung [3, 24]: 1.30±0.00 log (CFU/lung) | MIC ([4]; Streptococcus pneumoniae, 1028STRAIN): 0.03 µg/mL (≈ 0.029 µM) | MIC ([5]; Streptococcus pneumoniae, 1101STRAIN): 0.12 µg/mL (≈ 0.116 µM) | MIC50 [6]: 4 µg/mL (≈ 3.86 µM) | MIC90 [6]: 8 µg/mL (≈ 7.73 µM) | MIC ([7]; Streptococcus pneumoniae, MSC07465, read-out: MIC (minimum inhibitory concentration)): 0.03 µg/mL (≈ 0.029 µM) | MIC ([8]; Haemophilus influenzae, MSC17946, read-out: MIC (minimum inhibitory concentration)): 8 µg/mL (≈ 7.73 µM) | MIC ([9]; Streptococcus pneumoniae, MSC07365, read-out: MIC (minimum inhibitory concentration)): 4 µg/mL (≈ 3.86 µM) | MIC ([10]; Streptococcus pyogenes, MSC07812, read-out: MIC (minimum inhibitory concentration)): 0.25 µg/mL (≈ 0.241 µM) | MIC ([11]; Streptococcus pneumoniae, MSC08607, read-out: MIC (minimum inhibitory concentration)): 0.06 µg/mL (≈ 0.0579 µM) | MIC ([12]; Streptococcus, ATCC29213, read-out: MIC (minimum inhibitory concentration)): 0.5 µg/mL (≈ 0.483 µM) | MIC ([13]; Haemophilus influenzae, NSC17960, read-out: MIC (minimum inhibitory concentration)): 4 µg/mL (≈ 3.86 µM) | MIC ([14]; Streptococcus pyogenes, MSC07811, read-out: MIC (minimum inhibitory concentration)): 4 µg/mL (≈ 3.86 µM) | MIC ([15]; Streptococcus pneumoniae, ATCC700904, read-out: MIC (minimum inhibitory concentration)): 0.12 µg/mL (≈ 0.116 µM) | MIC ([16]; Streptococcus pyogenes, ATCC12344, read-out: MIC (minimum inhibitory concentration)): 0.06 µg/mL (≈ 0.0579 µM) | MIC ([17]; Streptococcus pneumoniae, ATCC49619, read-out: MIC (minimum inhibitory concentration)): 0.03 µg/mL (≈ 0.029 µM) | MIC ([18]; bacterium symbol A, read-out: MIC (minimum inhibitory concentration)): 4 µg/mL (≈ 3.86 µM) | MIC ([18]; notes for FIG. 1, strain of Test Example 3, read-out: MIC value): 4 µg/mL (≈ 3.86 µM)
